# Test results taken from ChEMBL document CHEMBL3044740, “Syntheses and evaluation of 2,5-disubstituted 4-thiazolidinone analogues as antimicrobial agents” (2012).
# Activity calls are given as the source filed them. No cut-off for these calls is given here.
# What was measured:
# Type in all cases: functional
# [1] = tested on: Staphylococcus aureus; test: Antibacterial activity against Staphylococcus aureus MTCC 96 at 200 ug/ml by cup-plate method; conditions: read-out: DIZ
# [2] = tested on: Pseudomonas aeruginosa; test: Antibacterial activity against Pseudomonas aeruginosa MTCC 2453 at 300 ug/ml by cup-plate method; conditions: for zone of inhibition at 300 µg/mL: read-out: DIZ
# [3] = tested on: Pseudomonas aeruginosa; test: Antibacterial activity against Pseudomonas aeruginosa MTCC 2453 at 50 ug/ml by cup-plate method; conditions: for zone of inhibition at 50 µg/mL: read-out: DIZ
# [4] = tested on: Pseudomonas aeruginosa; test: Antibacterial activity against Pseudomonas aeruginosa MTCC 2453 at 100 ug/ml by cup-plate method; conditions: for zone of inhibition at 100 µg/mL: read-out: DIZ
# [5] = tested on: Staphylococcus aureus; test: Antibacterial activity against Staphylococcus aureus MTCC 96 at 300 ug/ml by cup-plate method; conditions: read-out: DIZ
# [6] = tested on: Candida albicans; test: Antifungal activity against Candida albicans MTCC 227 at 300 ug/ml by cup-plate method; conditions: for zone of inhibition at 300 µg/mL: read-out: DIZ
# [7] = tested on: Bacillus subtilis; test: Antibacterial activity against Bacillus subtilis MTCC 121 at 200 ug/ml by cup plate method; conditions: read-out: DIZ
# [8] = tested on: Bacillus subtilis; test: Antibacterial activity against Bacillus subtilis MTCC 121 at 300 ug/ml by cup plate method; conditions: read-out: DIZ
# [9] = tested on: Escherichia coli; test: Antibacterial activity against Escherichia coli MTCC 739 at 200 ug/ml by cup-plate method; conditions: for zone of inhibition at 200 µg/mL: read-out: DIZ
# [10] = tested on: Candida albicans; test: Antifungal activity against Candida albicans MTCC 227 at 50 ug/ml by cup-plate method; conditions: for zone of inhibition at 50 µg/mL: read-out: DIZ
# [11] = tested on: Pseudomonas aeruginosa; test: Antibacterial activity against Pseudomonas aeruginosa MTCC 2453 at 200 ug/ml by cup-plate method; conditions: for zone of inhibition at 200 µg/mL: read-out: DIZ
# [12] = tested on: Staphylococcus aureus; test: Antibacterial activity against Staphylococcus aureus MTCC 96 at 50 ug/ml by cup-plate method; conditions: read-out: DIZ
# [13] = tested on: Bacillus subtilis; test: Antibacterial activity against Bacillus subtilis MTCC 121 at 50 ug/ml by cup plate method; conditions: read-out: DIZ
# [14] = tested on: Candida albicans; test: Antifungal activity against Candida albicans MTCC 227 at 200 ug/ml by cup-plate method; conditions: for zone of inhibition at 200 µg/mL: read-out: DIZ
# [15] = tested on: Staphylococcus aureus; test: Antibacterial activity against Staphylococcus aureus MTCC 96 at 100 ug/ml by cup-plate method; conditions: read-out: DIZ
# [16] = tested on: Bacillus subtilis; test: Antibacterial activity against Bacillus subtilis MTCC 121 at 100 ug/ml by cup plate method; conditions: read-out: DIZ
# [17] = tested on: Candida albicans; test: Antifungal activity against Candida albicans MTCC 227 at 100 ug/ml by cup-plate method; conditions: for zone of inhibition at 100 µg/mL: read-out: DIZ
# [18] = tested on: Escherichia coli; test: Antibacterial activity against Escherichia coli MTCC 739 at 300 ug/ml by cup-plate method; conditions: for zone of inhibition at 300 µg/mL: read-out: DIZ
# [19] = tested on: Escherichia coli; test: Antibacterial activity against Escherichia coli MTCC 739 at 100 ug/ml by cup-plate method; conditions: for zone of inhibition at 100 µg/mL: read-out: DIZ
# [20] = tested on: Escherichia coli; test: Antibacterial activity against Escherichia coli MTCC 739 at 50 ug/ml by cup-plate method; conditions: for zone of inhibition at 50 µg/mL: read-out: DIZ
Compound,zone of inhibition at 200 µg/mL [1],zone of inhibition at 300 µg/mL [2],zone of inhibition at 50 µg/mL [3],zone of inhibition at 100 µg/mL [4],zone of inhibition at 300 µg/mL [5],diameter of the inhibition zone (DIZ) [6],zone of inhibition at 200 µg/mL [7],zone of inhibition at 300 µg/mL [8],zone of inhibition at 200 µg/mL [9],diameter of the inhibition zone (DIZ) [10],zone of inhibition at 200 µg/mL [11],zone of inhibition at 50 µg/mL [12],zone of inhibition at 50 µg/mL [13],diameter of the inhibition zone (DIZ) [14],zone of inhibition at 100 µg/mL [15],zone of inhibition at 100 µg/mL [16],diameter of the inhibition zone (DIZ) [17],zone of inhibition at 300 µg/mL [18],zone of inhibition at 100 µg/mL [19],zone of inhibition at 50 µg/mL [20],also measured
COc1cc(/C=C2\S/C(=N/c3ccc([N+](=O)[O-])cc3)NC2=O)ccc1O,16 mm,17 mm,14 mm,15 mm,17 mm,inactive,14 mm,15 mm,12 mm,inactive,15 mm,14 mm,11 mm,inactive,15 mm,12 mm,inactive,13 mm,12 mm,11 mm,–
O=C1N/C(=N\c2ccccc2[N+](=O)[O-])S/C1=C\c1ccc(Cl)cc1,16 mm,18 mm,14 mm,15 mm,18 mm,inactive,15 mm,16 mm,11 mm,inactive,17 mm,14 mm,13 mm,inactive,15 mm,14 mm,inactive,11 mm,11 mm,10 mm,–
O=C1N/C(=N\c2ccccc2[N+](=O)[O-])S/C1=C\c1ccc(O)cc1,10 mm,–,–,–,11 mm,inactive,10 mm,11 mm,–,inactive,–,10 mm,10 mm,inactive,10 mm,10 mm,inactive,–,–,–,diameter of the inhibition zone (DIZ) [2]: inactive; diameter of the inhibition zone (DIZ) [3]: inactive; diameter of the inhibition zone (DIZ) [4]: inactive; diameter of the inhibition zone (DIZ) [9]: inactive; diameter of the inhibition zone (DIZ) [11]: inactive; diameter of the inhibition zone (DIZ) [18]: inactive; diameter of the inhibition zone (DIZ) [19]: inactive; diameter of the inhibition zone (DIZ) [20]: inactive
O=C1N/C(=N\c2ccc([N+](=O)[O-])cc2)S/C1=C\c1ccc(O)cc1,13 mm,12 mm,10 mm,11 mm,15 mm,inactive,14 mm,15 mm,13 mm,inactive,11 mm,11 mm,11 mm,inactive,12 mm,12 mm,inactive,15 mm,12 mm,11 mm,–
O=C1N/C(=N\c2ccc([N+](=O)[O-])cc2)S/C1=C\c1ccccc1,14 mm,13 mm,10 mm,10 mm,16 mm,inactive,13 mm,15 mm,13 mm,inactive,11 mm,12 mm,11 mm,inactive,13 mm,12 mm,inactive,15 mm,12 mm,11 mm,–
COc1cc(/C=C2\S/C(=N/c3ccccc3[N+](=O)[O-])NC2=O)ccc1O,8 mm,–,–,–,8 mm,inactive,10 mm,12 mm,–,inactive,–,7 mm,8 mm,inactive,8 mm,8 mm,inactive,–,–,–,diameter of the inhibition zone (DIZ) [2]: inactive; diameter of the inhibition zone (DIZ) [3]: inactive; diameter of the inhibition zone (DIZ) [4]: inactive; diameter of the inhibition zone (DIZ) [9]: inactive; diameter of the inhibition zone (DIZ) [11]: inactive; diameter of the inhibition zone (DIZ) [18]: inactive; diameter of the inhibition zone (DIZ) [19]: inactive; diameter of the inhibition zone (DIZ) [20]: inactive
O=C(O)c1cn(C2CC2)c2cc(N3CCNCC3)c(F)cc2c1=O [CIPROFLOXACIN],–,–,–,18 mm,–,–,–,–,–,–,–,–,–,–,19 mm,22 mm,inactive,–,28 mm,–,–
O=C1N/C(=N\c2ccc([N+](=O)[O-])cc2)S/C1=C\c1ccccc1[N+](=O)[O-],16 mm,12 mm,10 mm,11 mm,17 mm,inactive,13 mm,15 mm,12 mm,inactive,12 mm,11 mm,11 mm,inactive,15 mm,12 mm,inactive,12 mm,11 mm,11 mm,–
O=C1N/C(=N\c2ccccc2[N+](=O)[O-])S/C1=C\c1cccc([N+](=O)[O-])c1,14 mm,16 mm,10 mm,11 mm,16 mm,–,20 mm,22 mm,13 mm,–,15 mm,8 mm,7 mm,–,10 mm,15 mm,–,15 mm,8 mm,10 mm,zone of inhibition at 300 µg/mL [6]: 16 mm; zone of inhibition at 50 µg/mL [10]: 10 mm; zone of inhibition at 200 µg/mL [14]: 14 mm; zone of inhibition at 100 µg/mL [17]: 12 mm
O=C1N/C(=N\c2ccc([N+](=O)[O-])cc2)S/C1=C\c1ccccc1Cl,17 mm,17 mm,13 mm,14 mm,19 mm,inactive,15 mm,17 mm,15 mm,inactive,16 mm,15 mm,13 mm,inactive,16 mm,14 mm,inactive,16 mm,14 mm,13 mm,–
OC(Cn1cncn1)(Cn1cncn1)c1ccc(F)cc1F [FLUCONAZOLE],–,–,–,–,–,–,–,–,–,–,–,–,–,–,–,–,–,–,–,–,zone of inhibition at 100 µg/mL [17]: 35 mm
O=C1N/C(=N\c2ccccc2[N+](=O)[O-])S/C1=C\c1ccccc1Cl,14 mm,15 mm,8 mm,10 mm,15 mm,–,15 mm,18 mm,10 mm,–,12 mm,11 mm,11 mm,–,12 mm,13 mm,–,12 mm,10 mm,9 mm,zone of inhibition at 300 µg/mL [6]: 19 mm; zone of inhibition at 50 µg/mL [10]: 10 mm; zone of inhibition at 200 µg/mL [14]: 18 mm; zone of inhibition at 100 µg/mL [17]: 16 mm
